Here are results for two compounds from patent US11707449B2, “Methods and formulations for treatment of spinobulbar muscular atrophy” (ST. JUDE CHILDREN'S RESEARCH HOSPITAL, INC., priority 2017, dated 2023).

The structures appear in SMILES notation. “And” between values parts separate entries of the source, which are not always exact repeats. Equal entries are not always repeated. Where two headings read alike, the source gives them in different places.

Data set [1] is described as follows: Pharmacokinetics of MEPB and TA in plasma and tissues after a single intraperitoneal injection. It is filed as in vivo, male FVB/NJ mice. The conditions noted are these: for bioavailability in muscle, brain, and spinal cord / bioavailability in SBMA-affected tissues: mice. The protocol: MEPB and TA concentrations in plasma, liver, muscle, testes, brain, and spinal cord of male FVB/NJ mice were measured at multiple time points (5 min to 48 h) after a single intraperitoneal injection of either 100 mg/kg body weight MEPB or 50 mg/kg body weight TA. MEPB or TA and the internal standard (IS) SLV320 (Tocris Biosciences) were extracted from plasma and tissue homogenate samples with methyl tert-butyl ether. A 25-μL aliquot of sample was mixed with 10 μL IS (100 ng/mL). To this, 600 μL methyl tert-butyl ether was added and vortexed for 5 min. After centrifugation at 10,000 rpm for 5 min, the organic layer was then transferred to a glass vial and dried in a CentriVap Console (Labconco) at 35° C. for 25 min. The dried extracts were then reconstituted with 400 μL methanol, and an aliquot of 3 μL was injected onto the chromatographic system. All chemicals were HPLC grade or higher and were obtained from Fisher Scientific (Fair Lawn) unless otherwise specified. Quantitation of MEPB and TA was performed using an API 4000 mass spectrometer (AB SCIEX) equipped with a Prominence Ultra-Fast Liquid Chromatograph (UFLCXR) system (Shimadzu). […] Mass spectrometric analysis was performed with the turbo ion spray in positive ionization mode. All MS data were acquired using Analyst 1.5.2 software and processed using MultiQuant 2.1.1 software (SCIEX).
For all matrices (plasma, liver, muscle, testes, brain, and spinal cord), the lower limit of quantification (LLOQ) of MEPB was 2.5 ng/mL with a calibration range of 2.5 ng/mL to 100 ng/mL. However, due to dilution during homogenization, the effective LLOQ was 15 ng/mL for solid tissues. The LLOQ of TA was 5 ng/mL for plasma and 60 ng/mL for tissues. […] The MEPB concentration-time (Ct) data for liver, muscle, testes, brain, and spinal cord were grouped by mouse and analyzed using a two-stage, semiphysiologic, nonlinear mixed effects approach with maximum likelihood expectation maximization in ADAPT 5. The pooled arithmetic mean Ct data were subjected to noncompartmental analysis by tissue using WinNonlin 6.4 (Pharsight, a Cetara Company). All PK parameters were calculated using standard formulae^43. Parameters estimated for all matrices included observed maximum concentration (Cmax), time of Cmax (Tmax), concentration at the last observed time point (Clast), time of Clast (Tlast), and area under the Ct curve (AUC). When applicable, the terminal phase was defined as the three time points at the end of the Ct profile, excluding Cmax, and the elimination rate constant (Kel) was estimated using an unweighted log-linear regression of the terminal phase. The terminal elimination half-life (T½) was estimated as 0.693/Kel, and the AUC from time 0 to infinity ([…]) was estimated as the AUC to the last time point (AUClast)+Clast/Ke. Apparent clearance (CL/F=Dose/AUCinf), and apparent terminal volume of distribution (Vz/F) were also calculated.

Data set [2] concerns SBMA larvae of OK371>UAS-AR52Q flies. The data set is described as follows: Neuromuscular junction staining of larval SBMA flies. Format: in vivo, Drosophila.
Data set [3] relates to AR-responsive genes (Igfbp5, Mt2, Sgk1, Trib1, Camkk2, Tsc22d3, PIk3r3, and AR). The data set can be described thus: Droplet digital PCR of AR target gene expression in MN1-AR24Q cells. Format: cell-based. As to the method:
The QX200 droplet digital PCR (ddPCR) system (Bio-Rad) was used to measure gene expression levels in 20 μl emulsion PCR reactions that contain 20,000 droplets. Total RNAs were firstly treated with DNase (Thermo Fisher Scientific, AM1907) to remove genomic DNA, and 5 ng of treated RNA was used in each assay. ddPCR assay consisted of the following components: 1× one-step RT-ddPCR mix for probes (Bio-Rad, 1864021), forward primer (900 nM), reverse primer (900 nM), probe (FAM or VIC, 250 nM), nuclease-free water, and 5 ng RNA. All primers and probes were purchased from Thermo Fisher Scientific. Droplets were generated in the droplet generator (Bio-Rad) and PCR was performed in a C1000 Touch thermal cycler (Bio-Rad) according to the manufacturer's recommendation. After PCR, read-out of positive versus negative droplets was performed using the QX200 droplet reader (Bio-Rad) and calculated by QuantaSoft software version 1.7.4.0917 (Bio-Rad).

Where [4] appears, read: single intraperitoneal injection of 100 mg/kg MEPB or 50 mg/kg TA.

As for `Cc1ccc(OCCn2c(SCCOc3ccccc3)nc3ccccc32)cc1` [MEPB, 1-[2-(4-methylphenoxy)ethyl]-2-[(2-phenoxyethyl)sulfanyl]-1H-benzimidazole], the “penetration and duration in muscle, spinal cord, and testes” value in data set [1] (NTG mice, single intraperitoneal injection of 100 mg/kg MEPB or 50 mg/kg TA) was “marked penetration and duration”. Besides, in data set [1], the “bioavailability in muscle, brain, and spinal cord” value was “good bioavailability”. In addition, the “bioavailability in SBMA-affected tissues” value in data set [1] (setting [4]) is reported as “sufficient bioavailability”. In addition, in data set [2], the “neuromuscular junction branching (DHT-dependent neuromuscular junction defects)” value was “preventing loss of neuromuscular junction branching” and the “prevalence of satellite boutons (DHT-dependent neuromuscular junction defects)” value is “reducing the prevalence of satellite boutons”. For the same compound, the “ligand-dependent changes in transcription of AR target genes” value in data set [3] is “no impact”.
The term Cmax denotes the peak of the concentration-time curve. Usually Tmax stands for the time from dosing to the highest level. On to `Cc1c(Cl)cccc1Nc1ccccc1C(=O)O` [TA, tolfenamic acid], for which the “Tlast (time of Clast)” value in data set [1] (TA in brain, single intraperitoneal injection of 50 mg/kg TA) turned out to be 4 h; in data set [1] (TA in liver, single intraperitoneal injection of 50 mg/kg TA), 24 h; in data set [1] (TA in muscle, single intraperitoneal injection of 50 mg/kg TA), 8 h; in data set [1] (TA in plasma, single intraperitoneal injection of 50 mg/kg TA), 48 h; in data set [1] (TA in spinal cord, single intraperitoneal injection of 50 mg/kg TA), 4 h; in data set [1] (TA in testis, single intraperitoneal injection of 50 mg/kg TA), 8 h. For the same compound, the Cmax in data set [1] (male, FVB/NJ, mouse, ip, TA conc. in brain, single intraperitoneal injection of 50 mg/kg TA) was 700 nM and 194 ng/mL; in data set [1] (male, FVB/NJ, mouse, ip, TA conc. in liver, single intraperitoneal injection of 50 mg/kg TA), 260 µM and 67600 ng/mL; in data set [1] (male, FVB/NJ, mouse, ip, TA conc. in muscle, single intraperitoneal injection of 50 mg/kg TA), 4.8 µM and 1250 ng/mL; in data set [1] (male, FVB/NJ, mouse, ip, TA conc. in plasma, single intraperitoneal injection of 50 mg/kg TA), 223 µM and 13400 ng/mL; in data set [1] (male, FVB/NJ, mouse, ip, TA conc. in spinal cord, single intraperitoneal injection of 50 mg/kg TA), 2.1 µM and 554 ng/mL; in data set [1] (male, FVB/NJ, mouse, ip, TA conc. in testis, single intraperitoneal injection of 50 mg/kg TA) it was 11.6 µM and 3030 ng/mL. Besides, the Tmax in data set [1] (male, FVB/NJ, mouse, ip, TA in brain, single intraperitoneal injection of 50 mg/kg TA) stood at 1 h; in data set [1] (male, FVB/NJ, mouse, ip, TA in liver, single intraperitoneal injection of 50 mg/kg TA), 1 h; in data set [1] (male, FVB/NJ, mouse, ip, TA in muscle, single intraperitoneal injection of 50 mg/kg TA), 1 h; in data set [1] (male, FVB/NJ, mouse, ip, TA in plasma, single intraperitoneal injection of 50 mg/kg TA), 1 h; in data set [1] (male, FVB/NJ, mouse, ip, TA in spinal cord, single intraperitoneal injection of 50 mg/kg TA), 1 h; in data set [1] (male, FVB/NJ, mouse, ip, TA in testis, single intraperitoneal injection of 50 mg/kg TA), 1 h. The concentration at 4 hr in data set [1] (male, FVB/NJ, mouse, ip, TA in brain, single intraperitoneal injection of 50 mg/kg TA, read-out: Clast (concentration at the last observed time point)) was determined as 0.0667 µg/mL; in data set [1] (male, FVB/NJ, mouse, ip, TA in spinal cord, single intraperitoneal injection of 50 mg/kg TA, read-out: Clast (concentration at the last observed time point)), 0.0846 µg/mL. In addition, the concentration at 24 hr in data set [1] (male, FVB/NJ, mouse, ip, TA in liver, single intraperitoneal injection of 50 mg/kg TA, read-out: Clast (concentration at the last observed time point)) turned out to be 0.508 µg/mL. For the same compound, the concentration at 8 hr in data set [1] (male, FVB/NJ, mouse, ip, TA in muscle, single intraperitoneal injection of 50 mg/kg TA, read-out: Clast (concentration at the last observed time point)) is 0.119 µg/mL; in data set [1] (male, FVB/NJ, mouse, ip, TA in testis, single intraperitoneal injection of 50 mg/kg TA, read-out: Clast (concentration at the last observed time point)), 0.15 µg/mL. For the same compound, in data set [1] (male, FVB/NJ, mouse, ip, TA in plasma, single intraperitoneal injection of 50 mg/kg TA, read-out: Clast (concentration at the last observed time point)), the concentration at 48 hr stood at 0.0198 µg/mL. Also, in data set [1], the “bioavailability in muscle, brain, and spinal cord” value is listed as “poor bioavailability”. For the same compound, the “bioavailability in SBMA-affected tissues” value in data set [1] (setting [4]) is given as “poor bioavailability”.
